Laboratory results published in US20030181436A1, “Treatment for AIDS, HIV, and other related diseases and compounds for use therewith” (priority 2001, published 2003).

Assays:
Format in all cases: cell-based
HeLa CD4 LTR B-gal cells = test: Attachment assay, toxicity on sister plates by MTS; details: for TC50: attachment assay
Experimental: (§1) The attachment assay was performed with the HeLa CD4 LTR B-gal cells available from the AIDS Research and Reference Reagent Repository. […] HeLa CD4 LTR B-gal cells express cell surface CD4 and contain an LTR B-galactosidase reporter construct. Upon infection either the Tat protein incorporated into the virion or new Tat produced following virus integration and transcription trans-activate the LTR B-gal reporter, leading to expression of the B-galactosidase enzyme. HeLa CD4 LTR B-gal cells are routinely cultured with the required selection antibiotics and scrended for mycoplasma contamination. Twenty-four h prior to initiation of the assay cells were trypsinized, counted and 1×10^4 cells placed in a 0.2 cm well in media without selection antibiotics. Media was removed and compound media placed on the cells and incubated for 15 to 30 min at 37° C. A known titer of virus was then added to the wells and the incubation continued for 1 h. At the end of the incubation the wells were washed 6 times with media and the culture continued for 48 h. At 48 h the wells were washed one time with PBS and B-galactosidase enzyme expression determined by chemiluminescence per manufacturers instructions (Tropix Gal-screen TM, Tropix, Bedford, Mass.). Compound toxicity was monitored on sister plates using MTS dye reduction.

[1] = test system: SK-1 strain of HIV in CEM-SS cells; test: Chronically infected CEM/SK-1 cell assay, RT values
Experimental: Reverse transcriptase activity was measured in cell-free supernatants. Tritiated thymidine triphosphate (NEN) (TTP) was resuspended in distilled H2O at 5 Ci/mL. Poly rA and oligo dT were prepared as a stock solution which was kept at −20° C. The RT reaction buffer was prepared fresh on a daily basis and consists of 125 μL 1.0 M EGTA, 125 μL dH2O, 110 μL 10% SDS, 50 μL 1.0 M Tris (pH 7.4), 50 μL, 1.0 M DTT, and 40 μL 1.0 M MgCl2. These three solutions were mixed together in a ratio of 2 parts TTP, 1 part poly rA:oligo dT, and 1 part reaction buffer. Ten microliters of this reaction mixture was placed in a round bottom microtiter plate and 15 μL of virus containing supernatant was added and mixed. The plate was incubated at 37° C. in a water bath with a solid support to prevent submersion of the plate and incubated for 60 minutes. Following reaction, the reaction volume was spotted onto pieces of DE81 paper, washed 5 times for 5 minutes each in a 5% sodium phosphate buffer, 2 times for 1 minute each in distilled water, 2 times for 1 minute each in 70% ethanol, and then dried. Opti-Fluor O was added to each sample and incorporated radioactivity was quantitated utilizing a Wallac 1450 Microbetaplus liquid scintillation counter.
The chronically infected CEM cells were cultured and the assay performed in RPMI 1640 supplemental with 10% Fetal Bovine Serum (heat inactivated), 2 mM L-glutamine, 100 U/mL penicillin, […] and 10 ug/mL gentamycin. On day 3 cell-free supernatants were collected and cell viability measured by MTS dye reduction. (See Table 13 and FIG. 20).

[2] = test system: HIV-1 attachment to HeLa CD4 LTR B-gal cells; test: Inhibition of attachment assay; details: for IC50: attachment assay
Experimental: as §1, with “reduction. (See Tables 14 through 16 and FIGS. 21 and 22).” for “reduction.”

For Zinc Iodiscorbate [Compound Z], the “TOXICITY VALUES (Colt Titer) MEAN” value (HeLa CD4 LTR B-gal cells; 0.32 μG/Ml) was 0.989 O. D, the “TOXICITY VALUES (Colt Titer) MEAN” value (HeLa CD4 LTR B-gal cells; 1 μG/Ml) was 0.989 O. D and the “TOXICITY VALUES (Colt Titer) MEAN” value (HeLa CD4 LTR B-gal cells; 3.2 μG/Ml) was 0.989 O. D. For the same substance, the “TOXICITY VALUES (Colt Titer) MEAN” value (HeLa CD4 LTR B-gal cells; 10 μG/Ml) was 0.989 O. D, the “TOXICITY VALUES (Colt Titer) MEAN” value (HeLa CD4 LTR B-gal cells; 32 μG/Ml) was 0.989 O. D and the “TOXICITY VALUES (Colt Titer) MEAN” value (HeLa CD4 LTR B-gal cells; 100 μG/Ml) was 0.989 O. D. The TC50 (HeLa CD4 LTR B-gal cells) was “greater than 100 μg/mL”, the TC50 (HeLa CD4 LTR B-gal cells; listed as COMPOUND Z) was “TC50 (μG/mL) + >100 μg/mL” and the “% VC” value ([1]; 0.625 μG/Ml) was 95.1%. For the same substance, the “RT VALUES (cpm) MEAN” value ([1]; 0.625 μG/Ml) was 9997.0 cpm, the “% VC” value ([1]; 2 μG/Ml) was 96.8% and the “RT VALUES (cpm) MEAN” value ([1]; 2 μG/Ml) was 10178.7 cpm. For the same substance, the “% VC” value ([1]; 6.25 μG/Ml) was 16.8%, the “RT VALUES (cpm) MEAN” value ([1]; 6.25 μG/Ml) was 1761.0 cpm and the “% VC” value ([1]; 20 μG/Ml) was 1.2%. The “RT VALUES (cpm) MEAN” value ([1]; 20 μG/Ml) was 128.0 cpm, the “% VC” value ([1]; 62.5 μG/Ml) was 1.0% and the “RT VALUES (cpm) MEAN” value ([1]; 62.5 μG/Ml) was 104.0 cpm. The “% VC” value ([1]; 200 μG/Ml) was 0.5%, the “RT VALUES (cpm) MEAN” value ([1]; 200 μG/Ml) was 48.0 cpm and the IC50 ([1]; CEMSK1 chronic infection) was “IC50 (μG/Ml) = 4.49”. For the same substance, the “efficacy in HeLa CD4 LTR β-gal attachment assay” value [2] was “inactive”, the “% VC” value ([2]; 0.32 μG/Ml) was 90.2% and the “% VC” value ([2]; 1 μG/Ml) was 94.8%. For the same substance, the “% VC” value ([2]; 3.2 μG/Ml) was 74.5%, the “% VC” value ([2]; 10 μG/Ml) was 62.4% and the “% VC” value ([2]; 32 μG/Ml) was 54.4%. For the same substance, the “% VC” value ([2]; 100 μG/Ml) was 66.8%, the IC50 [2] was >100 µg/mL and the IC50 ([2]; listed as COMPOUND Z) was “IC50 (μG/mL) = >100 μg/mL”.
